pEC50: −log10 of the molar value.

System in one series: not listed separately
Briefly: Clearance value of the compound. The format is ADME, organism-based. The conditions noted are these: rat, in vivo.
One may read the clearance as the rate of elimination divided by the concentration. Lower therefore signals a low capacity for elimination. `CC(C)Oc1cc(OCCc2ccsc2)cc(C(=O)Nc2ccc(C(=O)O)cn2)c1` displayed a clearance of 3.8 mL/min/kg.

System in the next series: not listed separately
The series can be described thus: Half life value of the compound. The conditions noted are these: rat. It counts as ADME.
The term half-life denotes the time in which the quantity being followed falls by half. Low readings indicate rapid decline, high ones slow decline. For the compound `CC(C)Oc1cc(OCCc2ccsc2)cc(C(=O)Nc2ccc(C(=O)O)cn2)c1`, the half-life is 54 min.

The next series deals with T1, Hexokinase-4 (Homo sapiens, UniProt P35557).
T1 sequence (P35557 whole entry): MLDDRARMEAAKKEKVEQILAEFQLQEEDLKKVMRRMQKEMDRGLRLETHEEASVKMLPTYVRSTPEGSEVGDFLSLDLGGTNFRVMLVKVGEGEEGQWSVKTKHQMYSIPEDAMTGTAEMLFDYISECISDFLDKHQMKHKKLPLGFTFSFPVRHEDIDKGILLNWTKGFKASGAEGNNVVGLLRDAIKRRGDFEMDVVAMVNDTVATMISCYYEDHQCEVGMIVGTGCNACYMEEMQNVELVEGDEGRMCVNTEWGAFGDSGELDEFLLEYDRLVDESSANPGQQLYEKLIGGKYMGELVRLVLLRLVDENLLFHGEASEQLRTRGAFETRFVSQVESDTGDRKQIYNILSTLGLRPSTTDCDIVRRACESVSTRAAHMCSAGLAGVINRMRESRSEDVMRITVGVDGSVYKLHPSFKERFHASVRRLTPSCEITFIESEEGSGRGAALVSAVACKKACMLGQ
The series can be described thus: Potency in Glucokinase activation assay.
Conditions: not given
Broadly, the pEC50 is the negative decadic logarithm of the EC50, by convention in mol/L. A high value points to a low EC50. Turning to `CC(C)Oc1cc(OCc2ccccc2F)cc(C(=O)Nc2ccc(C(=O)O)cn2)c1`, the pEC50 was 7.00.

Compound `CSc1ccc(OCc2ccccc2)c(/C=C/c2ccc(C(=O)O)cn2)c1` gave a negative-log EC50 (pEC50) of 5.49.

In the case of `COc1cc(OC)cc(OCc2ccc(C(=O)O)cn2)c1`, the pEC50 is below 5.00.

`O=C(O)c1ccc(OCc2cc(OCc3ccccc3)cc(OCc3ccccc3)c2)nc1` showed a negative-log EC50 (pEC50) below 5.00.

For the compound `O=C(O)c1ccc(NC(=O)c2cccc(OCc3ccccc3Cl)c2OCc2ccccc2Cl)nc1`, the pEC50 was below 5.00.

Consider `CC(C)Oc1cc(OCCc2ccncc2)cc(C(=O)Nc2ccc(C(=O)O)cn2)c1`, for which the pEC50 was 5.75.

Turning to `CC(C)Oc1cc(OCCc2cccnc2)cc(C(=O)Nc2ccc(C(=O)O)cn2)c1`, the pEC50 is 5.90.

Turning to `O=C(O)c1ccc(NC(=O)c2cc(OCc3ccccc3)cc(OCc3ccccc3)c2)nc1`, the negative logarithm of the EC50 (pEC50) is 6.40.

The compound `CC(C)Oc1cc(OCCCc2ccccc2)cc(C(=O)Nc2ccc(C(=O)O)cn2)c1` had a negative-log EC50 (pEC50) of 6.38.

Regarding `O=C(O)c1ccc(CCc2cc(OCc3ccccc3)cc(OCc3ccccc3)c2)nc1`, the pEC50 is below 5.00.

Turning to `CC(C)Oc1cc(OCC2CCCC2)cc(C(=O)Nc2ccc(C(=O)O)cn2)c1`, the negative-log EC50 (pEC50) is 6.19.

Take `CC(C)Oc1cc(OCCC2CCOCC2)cc(C(=O)Nc2ccc(C(=O)O)cn2)c1`: the pEC50 is 5.88.

`CC(C)Oc1cc(OCc2ccccc2)cc(C(=O)Nc2ccc(C(=O)O)cn2)c1` gave a negative logarithm of the EC50 (pEC50) of 6.54. Compared with the last compound, the pEC50 is 0.66 log units higher.

`O=C(O)c1ccc(C(=O)Nc2cc(OCc3ccccc3)cc(OCc3ccccc3)c2)nc1` gave a pEC50 below 5.00.

As for `O=C(O)c1ccc(NC(=O)c2ccccc2OCc2ccccc2)nc1`, the negative-log EC50 (pEC50) is below 5.00.

`CC(C)Oc1cc(OCCC2CCCC2)cc(C(=O)Nc2ccc(C(=O)O)cn2)c1` gave a pEC50 of 6.77.

Turning to `O=C(O)c1ccc(NC(=O)c2cccc(OCc3ccccc3Cl)c2)nc1`, the negative logarithm of the EC50 (pEC50) is 6.04.

In turn, `CSc1ccc(OCc2ccccc2)c(C(=O)Nc2ccc(C(=O)O)cn2)c1` showed a pEC50 of 5.37. This pEC50 is 0.67 log units lower than that of the compound before.

The compound `CC(C)Oc1cc(OCCc2ccccc2)cc(C(=O)Nc2ccc(C(=O)O)cn2)c1` gave a pEC50 of 6.89.

`CSc1ccc(OCc2ccccc2)c(NC(=O)c2ccc(C(=O)O)cn2)c1` showed a pEC50 below 5.00.

`O=C(O)c1ccc(NC(=O)c2cc(OCc3ccccc3F)cc(OCc3ccccc3F)c2)nc1` had a negative logarithm of the EC50 (pEC50) of 7.05.

Compound `CC(C)COc1cc(OC(C)C)cc(C(=O)Nc2ccc(C(=O)O)cn2)c1` had a pEC50 of 6.24. This pEC50 is 0.81 log units lower than that of the compound before.

System in the next series: not listed separately
Briefly: Volume of distribution of the compound. The following applies: rat; read-out: Activity. It counts as ADME.
As to `CC(C)Oc1cc(OCCc2ccsc2)cc(C(=O)Nc2ccc(C(=O)O)cn2)c1`, the Vd was found to be 0.3 L/kg.

Source of the values: ChEMBL document CHEMBL1143537, “Discovery, synthesis and biological evaluation of novel glucokinase activators” (Bioorg Med Chem Lett, 2005).
